Reference: PubChem BioAssay AID248 (DTP/NCI, 2004)
Inconclusive results and toxic doses are left out. No stated cut-off is given here; in the data, active means T/C of 150% or more; inactive means T/C below 125%.

Tested on: L1210 leukemia ip in BDF1 mice, survival T/C
Test: NCI In Vivo Anticancer Drug Screen. Data for tumor model L1210 Leukemia (intraperitoneal) in B6D2F1 (BDF1) mice
Settings: endpoint: mean survival time, higher = longer survival
In short: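 Ratio derived from survival: compound-dosed mice over vehicle-dosed mice, all bearing a transplantable tumor.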

[1] = dose: 100.0 mg/kg/injection, schedule: Q01DX001 (ip), vehicle: saline
[2] = dose: 100.0 mg/kg/injection, schedule: Q01DX009 (ip), vehicle: Klucel (hydroxypropylcellulose) (HPC)
[3] = dose: 100.0 mg/kg/injection, schedule: Q04DX003 (ip), vehicle: Klucel (hydroxypropylcellulose) (HPC)
[4] = dose: 200.0 mg/kg/injection, schedule: Q01DX009 (ip), vehicle: Klucel (hydroxypropylcellulose) (HPC)
[5] = dose: 200.0 mg/kg/injection, schedule: Q04DX003 (ip), vehicle: Klucel (hydroxypropylcellulose) (HPC)
[6] = dose: 400.0 mg/kg/injection, schedule: Q01DX009 (ip), vehicle: Klucel (hydroxypropylcellulose) (HPC)
[7] = dose: 400.0 mg/kg/injection, schedule: Q04DX003 (ip), vehicle: Klucel (hydroxypropylcellulose) (HPC)
[8] = dose: 25.0 mg/kg/injection, schedule: Q04DX002 (ip), vehicle: Klucel (hydroxypropylcellulose) (HPC)
[9] = dose: 50.0 mg/kg/injection, schedule: Q04DX002 (ip), vehicle: Klucel (hydroxypropylcellulose) (HPC)
[10] = dose: 100.0 mg/kg/injection, schedule: Q04DX002 (ip), vehicle: Klucel (hydroxypropylcellulose) (HPC)
[11] = dose: 50.0 mg/kg/injection, schedule: Q01DX009 (ip), vehicle: saline with Tween-80
[12] = dose: 100.0 mg/kg/injection, schedule: Q01DX009 (ip), vehicle: saline with Tween-80
[13] = dose: 200.0 mg/kg/injection, schedule: Q01DX009 (ip), vehicle: saline with Tween-80
[14] = dose: 200.0 mg/kg/injection, schedule: Q04DX002 (ip), vehicle: Klucel (hydroxypropylcellulose) (HPC)
[15] = dose: 400.0 mg/kg/injection, schedule: Q04DX002 (ip), vehicle: Klucel (hydroxypropylcellulose) (HPC)
[16] = dose: 50.0 mg/kg/injection, schedule: Q04DX003 (ip), vehicle: saline
[17] = dose: 100.0 mg/kg/injection, schedule: Q04DX003 (ip), vehicle: saline
[18] = dose: 200.0 mg/kg/injection, schedule: Q04DX003 (ip), vehicle: saline

Measured: T/C

Cc1ccc(C(=O)CCc2ccccc2)cc1
inactive: dose: 100.0 mg/kg/injection, schedule: Q04DX003 (ip), vehicle: other 92 % of control | dose: 200.0 mg/kg/injection, schedule: Q04DX003 (ip), vehicle: other 91 % of control | dose: 400.0 mg/kg/injection, schedule: Q04DX003 (ip), vehicle: other 94 % of control

CCCCc1ccccn1
inactive: [1] 96 % of control

CN(C)c1ncnc(N)n1
inactive: [2] 91 % of control | [3] 95 % of control | [4] 88 % of control | [5] 98 % of control | [6] 90 % of control | [7] 97 % of control

COC(=O)C(C)(N)Cc1ccc(O)c(C)c1 (stereo not given)
inactive: [2] 96 % of control | [3] 108 % of control | [4] 100 % of control | [5] 101 % of control | [7] 95 % of control

O=C(COc1ccc(Cl)cc1)OCCO
inactive: dose: 100.0 mg/kg/injection, schedule: Q01DX001 (ip), vehicle: gum acacia 90 % of control | dose: 200.0 mg/kg/injection, schedule: Q01DX001 (ip), vehicle: gum acacia 96 % of control | dose: 400.0 mg/kg/injection, schedule: Q01DX001 (ip), vehicle: gum acacia 95 % of control

O=c1cc(Nc2ccccc2)[nH]c(=O)[nH]1
inactive: dose: 100.0 mg/kg/injection, schedule: Q01DX001 (ip), vehicle: Klucel (hydroxypropylcellulose) (HPC) 92 % of control | dose: 200.0 mg/kg/injection, schedule: Q01DX001 (ip), vehicle: Klucel (hydroxypropylcellulose) (HPC) 93 % of control | dose: 400.0 mg/kg/injection, schedule: Q01DX001 (ip), vehicle: Klucel (hydroxypropylcellulose) (HPC) 95 % of control

Nc1nc(N)c(N=Nc2ccc(C(=O)O)cc2)c(=O)[nH]1
inactive: [1] 105 % of control | dose: 200.0 mg/kg/injection, schedule: Q01DX001 (ip), vehicle: saline 106 % of control

CCCCN(CCCC)S(=O)(=O)O
inactive: [8] 101 % of control | [9] 108 % of control | [10] 115 % of control

O=C(N/N=C/c1ccccc1F)c1ccc(Cl)cc1
inactive: [11] 96 % of control | [12] 96 % of control | [13] 96 % of control

O=c1c2cnc3c4cccnc4ccc3c2[nH]n1-c1ccccc1
inactive: [10] 105 % of control | [14] 109 % of control | [15] 98 % of control

Cc1cc(N(CCCOS(C)(=O)=O)CCCOS(C)(=O)=O)ccc1C=Nc1ccc(-c2csc(COc3ccc(Br)cc3Br)n2)cc1
inactive: [12] 88 % of control | [13] 91 % of control | dose: 400.0 mg/kg/injection, schedule: Q01DX009 (ip), vehicle: saline with Tween-80 96 % of control

Cc1ccc2c(c1)C=C/C(=C/c1cc[n+](C)c3ccccc13)N2C
inactive: dose: 100.0 mg/kg/injection, schedule: Q01DX001 (ip), vehicle: other 97 % of control | dose: 200.0 mg/kg/injection, schedule: Q01DX001 (ip), vehicle: other 92 % of control

CCCCC(CCN1CCCC1)(CNC(=O)CN(CC)CC)c1cccc2ccccc12 (stereo not given)
inactive: dose: 25.0 mg/kg/injection, schedule: Q01DX009 (ip), vehicle: saline 94 % of control | [8] 103 % of control | dose: 50.0 mg/kg/injection, schedule: Q01DX009 (ip), vehicle: saline 102 % of control | [9] 100 % of control | [10] 107 % of control

CCCCCCC1=NC(C)(C)CO1
inactive: dose: 25.0 mg/kg/injection, schedule: Q01DX009 (ip), vehicle: saline with Tween-80 102 % of control | [11] 97 % of control | [16] 99 % of control | [12] 102 % of control | [17] 97 % of control | [13] 102 % of control | [18] 91 % of control

CC(C)NC(=O)c1ccc(CNN(C)C)cc1
inactive: dose: 25.0 mg/kg/injection, schedule: Q04DX003 (ip), vehicle: saline 114 % of control | [16] 104 % of control | [17] 112 % of control | [18] 104 % of control | dose: 400.0 mg/kg/injection, schedule: Q04DX003 (ip), vehicle: saline 111 % of control

COC(=O)C#CBr
inactive: dose: 3.13 mg/kg/injection, schedule: Q01DX009 (ip), vehicle: other 108 % of control | dose: 6.25 mg/kg/injection, schedule: Q01DX009 (ip), vehicle: other 97 % of control

CC(C)CCCC(C)C1CCC2C3CC(O)C4=CC(O)CCC4(C)C3CCC12C (stereo not given)
inactive: dose: 75.0 mg/kg/injection, schedule: Q01DX001 (ip), vehicle: other 92 % of control | dose: 150.0 mg/kg/injection, schedule: Q01DX001 (ip), vehicle: other 93 % of control

COc1ccc(CSC(=S)NNc2ccccc2)cc1
inactive: [2] 96 % of control | [3] 98 % of control | [4] 86 % of control | [5] 93 % of control | [6] 87 % of control | [7] 90 % of control

O=C(CBr)Nc1cccc(S(=O)(=O)F)c1
inactive: dose: 1.25 mg/kg/injection, schedule: Q01DX009 (ip), vehicle: carboxymethylcellulose (CMC) 89 % of control | dose: 2.5 mg/kg/injection, schedule: Q01DX009 (ip), vehicle: carboxymethylcellulose (CMC) 93 % of control | dose: 2.5 mg/kg/injection, schedule: Q04DX003 (ip), vehicle: carboxymethylcellulose (CMC) 100 % of control | dose: 5.0 mg/kg/injection, schedule: Q01DX009 (ip), vehicle: carboxymethylcellulose (CMC) 86 % of control | dose: 5.0 mg/kg/injection, schedule: Q04DX003 (ip), vehicle: carboxymethylcellulose (CMC) 100 % of control | dose: 10.0 mg/kg/injection, schedule: Q01DX001 (ip), vehicle: carboxymethylcellulose (CMC) 96 % of control | dose: 10.0 mg/kg/injection, schedule: Q04DX003 (ip), vehicle: carboxymethylcellulose (CMC) 93 % of control

CC(C)(C)S(=O)(=O)CCCl
inactive: dose: 75.0 mg/kg/injection, schedule: Q01DX009 (ip), vehicle: Klucel (hydroxypropylcellulose) (HPC) 93 % of control | dose: 100.0 mg/kg/injection, schedule: Q01DX005 (ip), vehicle: Klucel (hydroxypropylcellulose) (HPC) 96 % of control | [10] 88 % of control | dose: 150.0 mg/kg/injection, schedule: Q01DX009 (ip), vehicle: Klucel (hydroxypropylcellulose) (HPC) 93 % of control | dose: 200.0 mg/kg/injection, schedule: Q01DX005 (ip), vehicle: Klucel (hydroxypropylcellulose) (HPC) 100 % of control | [14] 100 % of control | dose: 300.0 mg/kg/injection, schedule: Q01DX009 (ip), vehicle: Klucel (hydroxypropylcellulose) (HPC) 96 % of control | dose: 400.0 mg/kg/injection, schedule: Q01DX005 (ip), vehicle: Klucel (hydroxypropylcellulose) (HPC) 100 % of control | [15] 100 % of control
